In patent publication US20070259060A1, “Formulations and Methods for Treating Breast Cancer with Morinda Citrifolia and Methylsulfonymethane” (priority 2003, published 2007):

Assays:
[1] = tested on: mammary gland tumorigenesis induced by estrogen; test: E2-induced mammary tumors (Example Four); format: in vivo, female ACI rats
From the text: FIG. 2 is a graphical representation of the preventative effects of Morinda citrifolia-containing compounds on mammary gland tumorigenesis induced by estrogen in female ACI rats in accordance with the present invention.
Sixty five-week old female rats were divided into four groups of fifteen rats each and placed on regular diets. Another eight female rats served as age-matched controls. One group of experimental rats was given 5% placebo in drinking water, the second experimental group was given 5% Morinda citrifolia juice in drinking water, the third experimental group was given 5% Methylsulfonylmethane (“MSM”) in drinking water, and the fourth experimental group was given a combination of 5% Morinda citrifolia juice and 5% MSM in drinking water. Two weeks later, all animals were implanted subcutaneously with a 25 mg pellet containing 22.5 mg of 17β-estradiol (E2) mixed with 2.5 mg cholesterol. Each experimental group was provided with its respective formulation for ninety days following estrogen (E2) implantation. The age-matched control animals received a 25 mg cholesterol pellet implant.
All rats with an E2 implant in the placebo group had mammary gland tumors. One hundred percent (100%) of the rats in this group had three to seven tumors. Seventy-one percent (71%) of the rats in the Morinda citrifolia group had two to five tumors. Fifty-seven percent (57%) of the rats in the MSM group had one to four tumors. Forty-three percent (43%) of the rats in the combination group had zero to three tumors.
The average tumor area in the placebo group, Morinda citrifolia group, MSM group, and combination group at 180 days after E2 implantation were 17, 12, 10 and 6 mm^2, respectively. The survival rates of the control, placebo, Morinda citrifolia, MSM and combination groups one hundred and sixty days after E2 implantation were 100%, 0%, 47%, 73%, and 87%, respectively. The survival rates of each group at one hundred eighty days after E2 implantation was 100%, 0%, 0%, 20% and 60%, respectively. At two hundred days, the survival rates of each group were 100%, 0%, 0%, 0%, and 27%, respectively.

[2] = tested on: mammary carcinogenesis induced by DMBA; test: DMBA-induced mammary carcinogenesis, Morinda citrifolia/MSM combination (Example Five); format: in vivo, female SD rats
From the text: In research supporting the present invention, the cancer preventive effects of Morinda citrifolia, MSM, and their combination at the initiation stage of multiple stage chemical carcinogenesis was investigated on a mammary breast carcinogenic animal model induced by DMBA in female SD rats. In the experiment, seventy-five female SD rats were divided into five groups: age-matched control, DMBA, 5% Morinda citrifolia+DMBA, 5% MSM+DMBA, and 5% Morinda citrifolia+5% MSM+DMBA groups. The experiment was started at the 35th postnatal day with water being given to the age-matched control group and the DMBA group, while 5% Morinda citrifolia, 5% MSM, and 5% Morinda citrifolia+5% MSM was supplied to the Morinda citrifolia, MSM, and Morinda citrifolia+MSM+DMBA groups. DMBA (25 mg/kg) was administered by mouth at the 50th postnatal day in the DMBA, Morinda citrifolia+DMBA, MSM+DMBA, and Morinda citrifolia+MSM+DMBA groups. Morinda citrifolia, MSM, Morinda citrifolia+MSM were continuously supplied for an additional 90 days after DMBA administration. All animals were sacrificed at the 9th month after DMBA treatment to examine the pathological changes in the mammary glands by light microscopy. […] Therefore, this synergistic combination regimen may contribute to human breast cancer prevention at the initiation stage of carcinogenesis. […]

[3] = 5% in drinking water from two weeks before to ninety days after E2 implantation

SMILES: CS(C)(=O)=O [MSM, methylsulfonylmethane]
- number of tumors per rat [1, 3]: one to four
- percent of the rats with mammary tumors [1, 3]: 57%
- body weight ([1]; 5% in drinking water, E2 implant): slight body weight loss
- average tumor area ([1]; 180 days after E2 implantation): 10 mm^2
- survival rate ([1]; one hundred and sixty days after E2 implantation): 73%
- survival rate ([1]; one hundred eighty days after E2 implantation): 20%
- survival rate ([1]; two hundred days after E2 implantation): 0%
- mild hyperplasia ([2]; 5% each, sacrificed 9th month after DMBA): 75%
- benign tumor or carcinoma in mammary glands by light microscopy ([2]; 5% from 35th postnatal day until 90 days after DMBA 25 mg/kg by mouth, sacrificed 9th month): No benign tumor or carcinoma was observed
